Tests used:
Type in all cases: in vivo
[1] = tested on: Clostridium cluster IV and XIVa; experiment: Intestinal colonization of Clostridia in GF mice, qPCR of fecal DNA; settings: metabolite in drinking water of GF mice gavaged with Clostridia consortium; FIG. 4D, 9C
S. Typhimurium ΔspiA = S. Typhimurium ΔspiA oral infection of mice: pathogen loads, cecal histology, survival
Procedure: (§1) Reconstitution of GF mice with cecal contents and defined bacteria. Cecal contents from single neonatal and 7-week old SPF mice were diluted into 50 ml (per one adult mouse) or 5 ml (per one 4, 12, 16-day old mouse) of PBS, and passed through a 70 μm cell strainer to eliminate clumps and debris under sterile conditions) under an atmosphere of 5% H2, 5% CO2 and 90% N2 in an anaerobic growth chamber (Coy Manufacturing, Grass Lake, MI). Then 200 μl of the suspension was processed by intragastric gavage into each of the recipient GF mice. Bacteroides species were anaerobically grown at 37° C. overnight in pre-reduced chopped-meat broth (Anaerobe systems, Morgan Hill, CA). E. coli were grown aerobically overnight in LB broth with shaking.
(§2) Enteric pathogen infection. Kanamycin (Km)-resistant and Streptomycin (Sm)-resistant Salmonella enterica serovar Typhimurium (S. Typhimurium) SL1344 ΔspiA was a gift from Dr. Denise Monack, Stanford University. Kanamycin (Km)-resistant wild-type Citrobacter rodentium strain DBS120 (pCRP1::Tn5) was a gift from Dr. David Schauer, Massachusetts Institute of Technology. […] Mice were infected by oral gavage with 0.2 ml of PBS containing approximately 5×10^7 CFU of S. Typhimurium, and 1×10^9 CFU of C. rodentium. […] Mouse survival was monitored for 7 days after infection. […]

fecal microbiota = experiment: 16S rRNA gene analysis of the fecal microbiota; settings: adult mice; FIG. 7, FIG. 2D
Procedure: Fecal pellet DNA extraction and 16S rRNA gene sequencing and sequence curation. Fecal samples were freshly collected and DNA was extracted using the E.Z.N.A® stool DNA kit. Amplicons were generated of the V4 region within the 16S rRNA gene and the fragments were sequenced using an Illumina MiSeq (14). These sequences were curated using Mothur (v.1.35) (14, 15) and sequences were binned into operational taxonomic units (OTUs). Taxonomic assignments were determined using a naive Bayesian classifier with the Ribosomal Database Project (RDP) training set (version 10) requiring an 80% bootstrap confidence score (16). Treatment with vancomycin and SCFAs and special diet. Vancomycin (250 mg/L) was administered in the mouse drinking water for 7 days before S. Typhimurium and C. rodentium infection and the treatment was kept during the length of the experiment.

C. rodentium = C. rodentium oral infection of mice: pathogen loads in feces; settings: adult mice, vancomycin in drinking water; day 25-30 after infection; FIG. 2B
Procedure: as §1, §2

Row | SMILES | enhanced colonization of Clostridia of IV and XIVa clusters [1] | reduction of intestinal loads of S. Typhimurium ΔspiA (S. Typhimurium ΔspiA; GF mice given succinate in drinking water and Clostridia consortium by gavage, FIG. 4E, F) [fold] | increase of S. Typhimurium colonization in fecal and cecal contents (S. Typhimurium ΔspiA; adult mice, vancomycin in drinking water, day 1 after infection, FIG. 2C) [logs] | change of fecal microbiota composition (fecal microbiota) | higher C. rodentium pathogen loads in the feces vs untreated mice (C. rodentium) [logs]
1 | CC(=O)O [acetate] | not |  |  |  | 
2 | CC(O)C(=O)O (stereo not shown) [lactate] | not |  |  |  | 
3 | O=C(O)CCC(=O)O [succinate] | 4 to 5 logs | ~100 |  |  | 
4 | CN[C@H](CC(C)C)C(=O)N[C@H]1C(=O)N[C@@H](CC(N)=O)C(=O)N[C@H]2C(=O)N[C@H]3C(=O)N[C@H](C(=O)N[C@H](C(=O)O)c4cc(O)cc(O)c4-c4cc3ccc4O)[C@H](O)c3ccc(c(Cl)c3)Oc3cc2cc(c3O[C@@H]2O[C@H](CO)[C@@H](O)[C@H](O)[C@H]2O[C@H]2C[C@](C)(N)[C@H](O)[C@H](C)O2)Oc2ccc(cc2Cl)[C@H]1O [vancomycin] |  |  | 4 to 5 | depleted the microbiota of Clostridiales and Bacteroidales and increased the abundance of Enterobacteriaceae and Lactobacillaceae | ~6

Source: patent publication US11883444B2, “Inhibition of enteric infection through the modulation of microbiota” (priority 2017, dated 2024)
